Results on four compounds are retold here after the NIST ThermoML archive (doi:10.1016/j.fluid.2013.03.029).

Numbers after ± are expanded uncertainties.

A short description of data set [1]: refractive index (Na D-line) (dimensionless). The following applies: 293.15 K; 101.33 kPa; Liquid; Standard Abbe refractometry.
For data set [2] the following is noted: Liquid; for mass density: 293.15 K, 101.33 kPa, Vibrating tube method; for Normal boiling temperature: Ebulliometric method (Recirculating still).

`CCCCCO` [pentan-1-ol]: in data set [1], the refractive index was 1.4087 ± 0.0008. In data set [2], the mass density worked out at 813.7 ± 1 kg/m3 and the Normal boiling temperature worked out at 137.80 ± 0.51 °C.

On to `CC(C)CO` [2-methyl-1-propanol], for which the refractive index in data set [1] is given as 1.3955 ± 0.0008. In addition, in data set [2], the mass density amounted to 801.7 ± 1 kg/m3 and the Normal boiling temperature turned out to be 107.00 ± 0.5 °C.

Regarding `O` [water], the refractive index in data set [1] turned out to be 1.3328 ± 0.0008. In addition, in data set [2], the mass density was 998.4 ± 1 kg/m3 and the Normal boiling temperature worked out at 100.1 ± 0.5 °C.

In the case of `CCO` [ethanol], the refractive index in data set [1] came out at 1.3616 ± 0.0008. In data set [2], the mass density is recorded as 790 ± 1 kg/m3 and the Normal boiling temperature was 78.40 ± 0.5 °C.

By refractive index is commonly meant the speed of light in vacuum divided by its phase velocity in the sample. What is called mass density is the mass of a sample divided by its volume.
